From ChEMBL document CHEMBL5465560, “Selectivity Literature for EUbOPEN Chemogenomic Library” (2024)
Each block holds one molecule with its values, some of them ahead of it.

Experiments:
[1] = target: Protein kinase C theta type (Homo sapiens, UniProt Q04759); conditions: at 10 µM
[2] = target: SRSF protein kinase 2 (Homo sapiens) (UniProt P78362); assay: Selectivity interaction (Ambit KINOMEscan and KiNATiv profiling in Jurkat cells) EUB0000090b SRPK2; assay type: cell-based; conditions: at 1 µM
Chain of SRSF protein kinase 2 (Homo sapiens) (P78362 whole entry, looked up, the tested form may be a part): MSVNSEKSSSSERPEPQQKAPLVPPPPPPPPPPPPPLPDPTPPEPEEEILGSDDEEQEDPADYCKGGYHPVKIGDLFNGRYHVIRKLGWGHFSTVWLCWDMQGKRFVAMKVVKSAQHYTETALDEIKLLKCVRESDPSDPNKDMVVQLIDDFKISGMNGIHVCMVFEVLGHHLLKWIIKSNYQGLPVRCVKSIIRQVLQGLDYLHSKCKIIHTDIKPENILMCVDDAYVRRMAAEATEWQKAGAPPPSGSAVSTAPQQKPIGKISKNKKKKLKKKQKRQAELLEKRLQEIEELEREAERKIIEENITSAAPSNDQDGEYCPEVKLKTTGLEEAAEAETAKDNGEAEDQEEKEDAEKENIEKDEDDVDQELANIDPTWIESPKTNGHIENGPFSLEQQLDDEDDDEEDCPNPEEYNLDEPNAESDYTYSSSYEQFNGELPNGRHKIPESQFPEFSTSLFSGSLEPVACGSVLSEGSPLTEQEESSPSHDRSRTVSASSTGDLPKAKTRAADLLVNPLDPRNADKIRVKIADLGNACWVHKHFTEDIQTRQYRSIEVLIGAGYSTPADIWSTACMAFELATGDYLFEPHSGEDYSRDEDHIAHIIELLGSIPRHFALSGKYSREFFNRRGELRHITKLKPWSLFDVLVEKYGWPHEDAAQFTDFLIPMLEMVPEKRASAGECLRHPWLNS

[3] = target: T1, Phosphatidylinositol 3-kinase C2 domain-containing subunit gamma (Homo sapiens) (UniProt O75747); assay: Selectivity interaction (KinomeScan (DiscoverX)) EUB0000655a PIK3C2G; conditions: at 10 µM
T1 sequence (whole entry): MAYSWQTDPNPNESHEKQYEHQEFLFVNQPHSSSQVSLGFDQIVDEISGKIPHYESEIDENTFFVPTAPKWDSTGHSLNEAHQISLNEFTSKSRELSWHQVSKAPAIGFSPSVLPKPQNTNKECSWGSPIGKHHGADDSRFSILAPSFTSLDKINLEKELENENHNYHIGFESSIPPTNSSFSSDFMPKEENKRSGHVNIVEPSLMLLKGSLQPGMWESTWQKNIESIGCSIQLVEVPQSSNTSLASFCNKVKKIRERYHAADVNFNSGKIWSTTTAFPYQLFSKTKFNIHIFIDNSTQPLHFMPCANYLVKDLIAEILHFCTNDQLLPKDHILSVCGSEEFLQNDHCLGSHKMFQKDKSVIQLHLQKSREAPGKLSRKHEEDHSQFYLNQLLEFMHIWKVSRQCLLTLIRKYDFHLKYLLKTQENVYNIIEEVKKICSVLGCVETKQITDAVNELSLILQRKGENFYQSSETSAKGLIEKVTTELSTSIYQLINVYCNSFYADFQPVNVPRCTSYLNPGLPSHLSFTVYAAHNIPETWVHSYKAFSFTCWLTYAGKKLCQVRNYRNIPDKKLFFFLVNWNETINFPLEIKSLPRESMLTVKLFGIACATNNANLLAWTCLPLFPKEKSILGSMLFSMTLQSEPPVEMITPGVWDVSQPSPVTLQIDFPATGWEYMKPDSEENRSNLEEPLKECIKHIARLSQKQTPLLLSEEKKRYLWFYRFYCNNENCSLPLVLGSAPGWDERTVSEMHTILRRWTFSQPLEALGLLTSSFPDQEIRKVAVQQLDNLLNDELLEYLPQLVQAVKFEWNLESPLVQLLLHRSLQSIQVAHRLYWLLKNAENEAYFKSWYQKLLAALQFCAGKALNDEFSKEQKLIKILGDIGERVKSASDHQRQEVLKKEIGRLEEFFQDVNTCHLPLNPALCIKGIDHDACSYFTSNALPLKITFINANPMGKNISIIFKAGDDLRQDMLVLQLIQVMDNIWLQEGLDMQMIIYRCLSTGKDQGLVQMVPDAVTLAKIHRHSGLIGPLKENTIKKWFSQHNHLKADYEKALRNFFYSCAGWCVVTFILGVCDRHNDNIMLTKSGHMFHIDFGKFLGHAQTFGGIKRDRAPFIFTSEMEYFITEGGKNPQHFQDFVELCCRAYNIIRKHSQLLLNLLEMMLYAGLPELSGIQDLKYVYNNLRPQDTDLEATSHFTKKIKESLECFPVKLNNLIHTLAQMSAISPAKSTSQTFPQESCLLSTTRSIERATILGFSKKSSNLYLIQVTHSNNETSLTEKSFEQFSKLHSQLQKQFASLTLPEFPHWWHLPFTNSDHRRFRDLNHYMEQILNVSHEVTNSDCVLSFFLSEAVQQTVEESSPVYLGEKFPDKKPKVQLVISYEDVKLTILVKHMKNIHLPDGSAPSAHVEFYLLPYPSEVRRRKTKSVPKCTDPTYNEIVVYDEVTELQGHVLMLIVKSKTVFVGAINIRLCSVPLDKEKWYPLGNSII

[4] = target: Aurora kinase B (Homo sapiens, UniProt Q96GD4); assay: Selectivity interaction (KinomeScan (DiscoverX)) EUB0001619a AURKB; conditions: at 1 µM
Chain of Aurora kinase B (Q96GD4 whole entry): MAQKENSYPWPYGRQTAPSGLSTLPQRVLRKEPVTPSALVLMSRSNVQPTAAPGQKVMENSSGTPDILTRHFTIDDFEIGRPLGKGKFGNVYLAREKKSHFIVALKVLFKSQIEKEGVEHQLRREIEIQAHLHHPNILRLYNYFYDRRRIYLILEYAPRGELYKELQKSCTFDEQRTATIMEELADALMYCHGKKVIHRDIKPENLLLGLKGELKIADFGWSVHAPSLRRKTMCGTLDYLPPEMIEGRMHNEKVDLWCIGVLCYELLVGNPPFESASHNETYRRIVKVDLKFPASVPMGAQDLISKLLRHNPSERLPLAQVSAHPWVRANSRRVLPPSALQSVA

[5] = target: Cyclin-dependent kinase 9 (Homo sapiens, UniProt P50750); assay: Selectivity interaction (SelectScreen Kinase Profiling (Thermo Fisher Scientific)) EUB0001558a CDK9; conditions: at 1 µM
Chain of Cyclin-dependent kinase 9 (P50750 whole entry): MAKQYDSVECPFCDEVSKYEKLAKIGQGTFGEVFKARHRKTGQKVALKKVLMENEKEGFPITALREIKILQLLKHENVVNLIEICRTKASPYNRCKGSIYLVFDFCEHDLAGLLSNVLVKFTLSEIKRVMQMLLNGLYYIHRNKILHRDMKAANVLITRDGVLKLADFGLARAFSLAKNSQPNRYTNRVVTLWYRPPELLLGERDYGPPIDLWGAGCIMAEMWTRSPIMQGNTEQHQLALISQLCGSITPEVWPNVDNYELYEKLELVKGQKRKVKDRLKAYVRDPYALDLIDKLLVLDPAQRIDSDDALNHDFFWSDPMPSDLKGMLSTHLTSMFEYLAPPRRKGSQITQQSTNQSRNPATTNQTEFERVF

[6] = target: T2, MAP/microtubule affinity-regulating kinase 4 (Homo sapiens) (UniProt Q96L34); assay: Selectivity interaction (Kinase panel (KiNativ target engagement assay in Jurkat cells)) EUB0001635a MARK4; assay type: cell-based; conditions: Selectivity number of off-targets 0.0, Selectivity number of targets 233.0, Source Knowledge https://www.sciencedirect.com/science/article/pii/S2451945619300674?via%3Dihub, at 1 µM
T2 sequence (whole entry): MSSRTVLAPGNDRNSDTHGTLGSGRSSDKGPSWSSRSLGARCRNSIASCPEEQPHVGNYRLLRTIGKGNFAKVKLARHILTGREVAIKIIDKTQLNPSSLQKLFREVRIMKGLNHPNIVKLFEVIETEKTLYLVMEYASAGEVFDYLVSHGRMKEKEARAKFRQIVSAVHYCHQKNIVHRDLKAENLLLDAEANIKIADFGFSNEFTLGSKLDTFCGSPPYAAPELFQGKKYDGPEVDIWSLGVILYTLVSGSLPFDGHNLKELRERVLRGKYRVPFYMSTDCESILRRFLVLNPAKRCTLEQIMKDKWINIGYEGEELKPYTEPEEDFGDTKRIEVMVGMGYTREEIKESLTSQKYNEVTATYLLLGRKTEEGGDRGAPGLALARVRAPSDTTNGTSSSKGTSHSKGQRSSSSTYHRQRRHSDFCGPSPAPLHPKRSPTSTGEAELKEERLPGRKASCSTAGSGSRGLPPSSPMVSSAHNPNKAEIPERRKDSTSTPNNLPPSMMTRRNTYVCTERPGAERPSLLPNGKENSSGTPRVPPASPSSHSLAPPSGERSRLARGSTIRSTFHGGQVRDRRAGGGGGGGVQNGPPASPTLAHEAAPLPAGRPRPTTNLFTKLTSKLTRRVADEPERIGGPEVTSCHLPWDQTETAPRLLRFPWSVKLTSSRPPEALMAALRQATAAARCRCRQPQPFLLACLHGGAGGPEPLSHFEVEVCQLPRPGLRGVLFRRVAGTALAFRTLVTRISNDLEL

[7] = target: Cyclin-dependent kinase 14 (Homo sapiens) (UniProt O94921); assay: Selectivity interaction (ActivX KiNativ screen (kinase selectivity in THP-1 cell lysates)) EUB0000639a CDK14; assay type: subcellular; conditions: lysate, at 0.04 µM
Chain of Cyclin-dependent kinase 14 (Homo sapiens) (O94921 whole entry): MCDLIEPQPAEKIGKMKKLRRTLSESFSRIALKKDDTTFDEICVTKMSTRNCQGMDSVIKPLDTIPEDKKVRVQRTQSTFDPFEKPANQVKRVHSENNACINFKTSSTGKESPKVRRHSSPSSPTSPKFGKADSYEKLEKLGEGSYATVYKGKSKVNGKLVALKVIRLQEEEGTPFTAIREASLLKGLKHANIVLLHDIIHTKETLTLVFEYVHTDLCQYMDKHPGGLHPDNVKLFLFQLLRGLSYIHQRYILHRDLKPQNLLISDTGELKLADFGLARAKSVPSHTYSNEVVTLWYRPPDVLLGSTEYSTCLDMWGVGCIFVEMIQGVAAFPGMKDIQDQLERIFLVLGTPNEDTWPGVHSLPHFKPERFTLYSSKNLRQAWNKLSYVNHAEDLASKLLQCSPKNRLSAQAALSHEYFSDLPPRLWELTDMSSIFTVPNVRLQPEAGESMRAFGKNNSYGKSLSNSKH

[8] = target: Proto-oncogene tyrosine-protein kinase Src (Homo sapiens, UniProt P12931); assay: Selectivity interaction (ProQinase) EUB0000171b SRC
Chain of Proto-oncogene tyrosine-protein kinase Src (P12931 2-536 limits assumed): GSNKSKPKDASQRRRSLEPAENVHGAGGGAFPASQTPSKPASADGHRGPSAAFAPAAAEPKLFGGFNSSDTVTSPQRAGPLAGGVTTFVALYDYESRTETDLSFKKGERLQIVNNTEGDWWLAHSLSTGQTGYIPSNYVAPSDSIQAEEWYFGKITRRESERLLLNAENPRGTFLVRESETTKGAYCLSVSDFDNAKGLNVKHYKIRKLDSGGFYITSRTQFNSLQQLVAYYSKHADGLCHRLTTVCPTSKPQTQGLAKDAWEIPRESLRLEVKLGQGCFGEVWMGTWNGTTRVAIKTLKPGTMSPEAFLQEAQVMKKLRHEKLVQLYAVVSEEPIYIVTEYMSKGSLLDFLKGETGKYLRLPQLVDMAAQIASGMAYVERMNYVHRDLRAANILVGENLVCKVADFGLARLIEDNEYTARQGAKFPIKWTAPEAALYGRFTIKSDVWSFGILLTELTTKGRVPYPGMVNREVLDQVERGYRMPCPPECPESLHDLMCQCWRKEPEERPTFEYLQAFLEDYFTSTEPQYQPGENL

[9] = target: Cyclin-dependent kinase-like 1 (Homo sapiens) (UniProt Q00532); assay: Selectivity interaction (KinomeScan (DiscoverX)) EUB0000092b CDKL1; conditions: at 10 µM
Chain of Cyclin-dependent kinase-like 1 (Homo sapiens) (Q00532 whole entry): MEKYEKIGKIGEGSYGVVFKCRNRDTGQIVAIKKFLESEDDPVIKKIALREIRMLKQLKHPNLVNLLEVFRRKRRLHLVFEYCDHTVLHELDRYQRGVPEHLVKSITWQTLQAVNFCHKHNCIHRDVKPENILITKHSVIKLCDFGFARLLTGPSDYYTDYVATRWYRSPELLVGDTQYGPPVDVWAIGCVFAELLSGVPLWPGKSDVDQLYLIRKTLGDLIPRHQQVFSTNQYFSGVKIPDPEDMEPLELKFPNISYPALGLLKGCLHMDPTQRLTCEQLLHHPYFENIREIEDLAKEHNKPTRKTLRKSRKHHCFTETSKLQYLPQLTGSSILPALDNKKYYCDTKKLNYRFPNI

[10] = target: Calcium/calmodulin-dependent protein kinase type 1G (Homo sapiens) (UniProt Q96NX5); assay: Selectivity interaction (Kinase panel (Z-LYTE Assay)) EUB0001632a CAMK1G; conditions: at 10 µM
Chain of Calcium/calmodulin-dependent protein kinase type 1G (Homo sapiens) (Q96NX5 whole entry): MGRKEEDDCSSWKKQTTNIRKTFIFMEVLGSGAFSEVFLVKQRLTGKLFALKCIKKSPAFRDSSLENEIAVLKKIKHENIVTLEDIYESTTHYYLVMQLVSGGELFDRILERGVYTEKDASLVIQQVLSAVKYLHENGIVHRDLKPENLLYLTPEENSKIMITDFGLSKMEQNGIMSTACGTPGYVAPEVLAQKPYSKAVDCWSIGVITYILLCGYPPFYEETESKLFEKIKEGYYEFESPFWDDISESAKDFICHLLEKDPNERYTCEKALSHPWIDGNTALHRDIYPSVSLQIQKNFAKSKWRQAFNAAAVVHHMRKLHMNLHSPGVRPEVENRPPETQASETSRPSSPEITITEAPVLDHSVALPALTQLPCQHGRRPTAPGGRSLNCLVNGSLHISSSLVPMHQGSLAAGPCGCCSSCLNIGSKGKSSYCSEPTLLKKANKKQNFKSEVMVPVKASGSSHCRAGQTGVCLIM

Chain of Protein kinase C theta type (Q04759 whole entry, looked up): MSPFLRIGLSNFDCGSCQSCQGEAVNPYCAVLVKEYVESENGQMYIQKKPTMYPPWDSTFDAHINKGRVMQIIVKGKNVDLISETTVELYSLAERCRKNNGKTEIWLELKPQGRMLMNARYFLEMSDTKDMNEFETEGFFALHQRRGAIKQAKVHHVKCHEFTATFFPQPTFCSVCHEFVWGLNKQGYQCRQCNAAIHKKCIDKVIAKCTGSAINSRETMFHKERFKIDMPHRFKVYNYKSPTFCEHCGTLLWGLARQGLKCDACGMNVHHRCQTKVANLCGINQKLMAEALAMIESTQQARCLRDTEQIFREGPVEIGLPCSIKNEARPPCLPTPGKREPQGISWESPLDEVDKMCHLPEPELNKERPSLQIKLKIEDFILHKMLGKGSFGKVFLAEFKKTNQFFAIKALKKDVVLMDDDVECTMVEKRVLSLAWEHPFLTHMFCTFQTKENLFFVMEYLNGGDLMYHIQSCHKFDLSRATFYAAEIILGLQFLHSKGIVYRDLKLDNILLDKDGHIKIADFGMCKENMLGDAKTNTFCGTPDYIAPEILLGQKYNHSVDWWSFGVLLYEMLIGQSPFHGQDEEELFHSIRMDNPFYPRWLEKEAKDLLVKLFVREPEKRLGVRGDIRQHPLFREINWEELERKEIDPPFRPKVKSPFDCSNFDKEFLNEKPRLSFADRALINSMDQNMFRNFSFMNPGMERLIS

- % of control [1]: 100%
SMILES: CCN(CC)CCCCNc1ncc2cc(-c3cc(OC)cc(OC)c3)c(NC(=O)NC(C)(C)C)nc2n1

SMILES: CN(C)C/C=C/C(=O)Nc1ccc(C(=O)N2CCCC(Nc3ncc(Cl)c(-c4c[nH]c5ccccc45)n3)C2)cc1 (stereo unspecified)
- % of control [2]: 98%

SMILES: CN(C)CCOc1ccc(-c2nc(-c3ccncc3)c(-c3ccc4c(c3)CC/C4=N\O)[nH]2)cc1
- % of control [3]: 55%

SMILES: N#Cc1cccc(-c2c[nH]c3ncnc(N4CCOCC4)c23)c1
- % of control [4]: 26%

SMILES: CC(C)(O)[C@H](F)CN1Cc2cc(NC(=O)c3cnn4cccnc34)c(N3CCOCC3)cc2C1=O
- % of inhibition [5]: 74.5%

SMILES: C=CC(=O)Nc1ccc(C(=O)Nc2[nH]nc3c2CN(C(=O)N[C@H](CN(C)C)c2ccccc2)C3(C)C)cc1
- % of engagement [6]: 55.8%

- % of inhibition [7]: 5.5%
SMILES: CC[C@@H]1[C@H](F)C(=O)N[C@@H]1COc1nccc2cc(C(N)=O)c(OC)cc12 [ZIMLOVISERTIB]

- % of control ([8]; at 1 µM): 98%
- % of control ([8]; at 5 µM): 86%
SMILES: C=CC(=O)Nc1cccc(C(=O)Nc2ccc(Nc3cc(-c4[nH]c(SC)nc4C)ccn3)cc2)c1

SMILES: CCC(=O)N1CCN(c2ccc(-n3c(=O)ccc4cnc5ccc(-c6cnc7ccccc7c6)cc5c43)cc2C(F)(F)F)CC1
- % of control [9]: 100%

- % of control [10]: -0.991%
SMILES: Cn1cc(-n2cnc3c(NCc4nc5cc(Cl)c(Cl)cc5[nH]4)nc(N4CCOCC4)nc32)cn1
